Laboratory results taken from the NIST ThermoML archive (doi:10.1016/j.jct.2012.01.004).
Where “and” joins values, the source holds several entries; their conditions need not be identical. Equal values may be shown once. ± gives the expanded uncertainty stated by the source.

Key:
[1] = activity coefficient (dimensionless); of the first substance listed, at infinite dilution; xn = mol fraction of the nth substance listed; details: Gas, Chromatography, x1 = 0
[2] = 323.15 K; 101.33 kPa; Liquid; Vibrating tube method

| activity coefficient ([1]; 313.15 K) | activity coefficient ([1]; 333.15 K) | activity coefficient ([1]; 353.15 K) | activity coefficient ([1]; 363.15 K) | mass density [2] | SMILES |
| --- | --- | --- | --- | --- | --- |
| 1.67 and 1.7 | 1.41 and 1.44 | 1.14 and 1.26 | 1.13 and 1.17 |  | C=CCCCC [hex-1-ene] + CCCCCCCCCCCCCC[P+](CCCCCC)(CCCCCC)CCCCCC.F[P-](F)(F)(F)(F)F |
| 2.21 and 2.31 | 1.51 and 1.49 | 0.989 and 1.01 | 0.893 and 0.911 |  | CCO [ethanol] + CCCCCCCCCCCCCC[P+](CCCCCC)(CCCCCC)CCCCCC.F[P-](F)(F)(F)(F)F |
| 1.35 and 1.34 | 1.08 and 1.14 | 0.901 and 0.941 | 0.883 and 0.871 |  | C1CCCC1 [cyclopentane] + CCCCCCCCCCCCCC[P+](CCCCCC)(CCCCCC)CCCCCC.F[P-](F)(F)(F)(F)F |
| 2.77 and 3.04 | 2.43 and 2.47 | 2.09 and 2.05 | 1.98 and 2 |  | CCCCCCCCC [nonane] + CCCCCCCCCCCCCC[P+](CCCCCC)(CCCCCC)CCCCCC.F[P-](F)(F)(F)(F)F |
| 0.961 and 1 | 0.783 and 0.835 | 0.63 and 0.694 | 0.626 and 0.642 |  | CCc1ccccc1 [ethylbenzene] + CCCCCCCCCCCCCC[P+](CCCCCC)(CCCCCC)CCCCCC.F[P-](F)(F)(F)(F)F |
| 2.76 and 2.84 | 2.49 and 2.32 | 1.83 and 1.85 | 1.74 and 1.72 |  | C#CCCCCCCCC [1-decyne] + CCCCCCCCCCCCCC[P+](CCCCCC)(CCCCCC)CCCCCC.F[P-](F)(F)(F)(F)F |
| 1.42 and 1.54 | 1.24 and 1.37 | 1.07 and 1.13 | 1.05 and 1.07 |  | C=CCCC [1-pentene] + CCCCCCCCCCCCCC[P+](CCCCCC)(CCCCCC)CCCCCC.F[P-](F)(F)(F)(F)F |
| 2.4 and 2.5 | 2.01 and 1.98 | 1.62 and 1.63 | 1.54 and 1.55 |  | C=CCCCCCCC [1-nonene] + CCCCCCCCCCCCCC[P+](CCCCCC)(CCCCCC)CCCCCC.F[P-](F)(F)(F)(F)F |
| 2.02 and 2.2 | 1.75 and 1.79 | 1.51 and 1.48 | 1.44 and 1.43 |  | C=CCCCCCC [oct-1-ene] + CCCCCCCCCCCCCC[P+](CCCCCC)(CCCCCC)CCCCCC.F[P-](F)(F)(F)(F)F |
| 2.5 and 2.4 | 1.96 and 2.02 | 1.65 and 1.59 | 1.56 and 1.52 |  | C#CCCCCCCC [1-nonyne] + CCCCCCCCCCCCCC[P+](CCCCCC)(CCCCCC)CCCCCC.F[P-](F)(F)(F)(F)F |
| 1.86 and 1.9 | 1.58 and 1.59 | 1.32 and 1.36 | 1.27 and 1.3 |  | C=CCCCCC [1-heptene] + CCCCCCCCCCCCCC[P+](CCCCCC)(CCCCCC)CCCCCC.F[P-](F)(F)(F)(F)F |
| 1.77 and 1.92 | 1.52 and 1.55 | 1.27 and 1.29 | 1.19 and 1.25 |  | CCCCC [pentane] + CCCCCCCCCCCCCC[P+](CCCCCC)(CCCCCC)CCCCCC.F[P-](F)(F)(F)(F)F |
| 2.81 and 2.79 | 2.29 and 2.28 | 1.85 and 1.83 | 1.74 and 1.75 |  | C=CCCCCCCCC [1-decene] + CCCCCCCCCCCCCC[P+](CCCCCC)(CCCCCC)CCCCCC.F[P-](F)(F)(F)(F)F |
| 1.14 and 1.1 | 0.939 and 0.949 | 0.799 and 0.779 | 0.777 and 0.735 |  | CCCc1ccccc1 [propylbenzene] + CCCCCCCCCCCCCC[P+](CCCCCC)(CCCCCC)CCCCCC.F[P-](F)(F)(F)(F)F |
| 1.96 and 2.07 | 1.69 and 1.79 | 1.48 and 1.5 | 1.43 and 1.47 |  | CCCCCC [hexane] + CCCCCCCCCCCCCC[P+](CCCCCC)(CCCCCC)CCCCCC.F[P-](F)(F)(F)(F)F |
| 1.64 and 1.8 | 1.4 and 1.44 | 1.17 and 1.2 | 1.11 and 1.14 |  | C1CCCCCCC1 [cyclooctane] + CCCCCCCCCCCCCC[P+](CCCCCC)(CCCCCC)CCCCCC.F[P-](F)(F)(F)(F)F |
| 1.96 and 1.8 | 1.59 and 1.61 | 1.36 and 1.32 | 1.3 and 1.27 |  | C#CCCCCC [1-heptyne] + CCCCCCCCCCCCCC[P+](CCCCCC)(CCCCCC)CCCCCC.F[P-](F)(F)(F)(F)F |
| 2.19 and 2.03 | 1.79 and 1.75 | 1.44 and 1.56 | 1.41 and 1.46 |  | C#CCCCCCC [1-octyne] + CCCCCCCCCCCCCC[P+](CCCCCC)(CCCCCC)CCCCCC.F[P-](F)(F)(F)(F)F |
| 2.53 and 2.49 | 2.12 and 2.18 | 1.87 and 1.83 | 1.81 and 1.74 |  | CCCCCCCC [octane] + CCCCCCCCCCCCCC[P+](CCCCCC)(CCCCCC)CCCCCC.F[P-](F)(F)(F)(F)F |
| 0.659 and 0.705 | 0.543 and 0.553 | 0.438 and 0.448 | 0.415 and 0.419 |  | c1ccccc1 [benzene] + CCCCCCCCCCCCCC[P+](CCCCCC)(CCCCCC)CCCCCC.F[P-](F)(F)(F)(F)F |
| 1.46 and 1.48 | 1.23 and 1.21 | 1.05 and 0.969 | 0.991 and 0.951 |  | C1CCCCC1 [cyclohexane] + CCCCCCCCCCCCCC[P+](CCCCCC)(CCCCCC)CCCCCC.F[P-](F)(F)(F)(F)F |
| 1.57 and 1.6 | 1.3 and 1.33 | 1.08 and 1.1 | 1.03 and 1.05 |  | C1CCCCCC1 [cycloheptane] + CCCCCCCCCCCCCC[P+](CCCCCC)(CCCCCC)CCCCCC.F[P-](F)(F)(F)(F)F |
|  |  |  |  | 987.15 ± 1.1 kg/m3 | CCCCCCCCCCCCCC[P+](CCCCCC)(CCCCCC)CCCCCC.F[P-](F)(F)(F)(F)F [trihexyl(tetradecyl)phosphonium hexafluorophosphate(V)] |
| 1.88 and 1.89 | 1.57 and 1.6 | 1.32 and 1.33 | 1.23 and 1.3 |  | C1CCCCCCCC1 [cyclononane] + CCCCCCCCCCCCCC[P+](CCCCCC)(CCCCCC)CCCCCC.F[P-](F)(F)(F)(F)F |
| 2.12 and 2.14 | 1.41 and 1.44 | 0.938 and 0.984 | 0.855 and 0.881 |  | CO [methanol] + CCCCCCCCCCCCCC[P+](CCCCCC)(CCCCCC)CCCCCC.F[P-](F)(F)(F)(F)F |
| 1.52 and 1.44 | 1.28 and 1.27 | 1.05 and 1.15 | 1.03 and 1.09 |  | C#CCCC [1-pentyne] + CCCCCCCCCCCCCC[P+](CCCCCC)(CCCCCC)CCCCCC.F[P-](F)(F)(F)(F)F |
| 3.28 and 3.32 | 2.62 and 2.9 | 2.29 and 2.31 | 2.19 and 2.24 |  | CCCCCCCCCC [decane] + CCCCCCCCCCCCCC[P+](CCCCCC)(CCCCCC)CCCCCC.F[P-](F)(F)(F)(F)F |
| 2.25 and 2.19 | 1.81 and 2 | 1.65 and 1.67 | 1.55 and 1.65 |  | CCCCCCC [heptane] + CCCCCCCCCCCCCC[P+](CCCCCC)(CCCCCC)CCCCCC.F[P-](F)(F)(F)(F)F |
| 1.66 and 1.71 | 1.42 and 1.43 | 1.16 and 1.24 | 1.16 and 1.14 |  | C#CCCCC [1-hexyne] + CCCCCCCCCCCCCC[P+](CCCCCC)(CCCCCC)CCCCCC.F[P-](F)(F)(F)(F)F |

| SMILES | activity coefficient ([1]; 313.15 K) | activity coefficient ([1]; 333.15 K) | activity coefficient ([1]; 353.15 K) | activity coefficient ([1]; 363.15 K) | mass density [2] |
| --- | --- | --- | --- | --- | --- |
| CC(C)=O [acetone] + CCCCCCCCCCCCCC[P+](CCCCCC)(CCCCCC)CCCCCC.F[P-](F)(F)(F)(F)F | 0.648 and 0.694 | 0.517 and 0.507 | 0.388 and 0.404 | 0.371 and 0.381 |  |
| Cc1ccccc1 [toluene] + CCCCCCCCCCCCCC[P+](CCCCCC)(CCCCCC)CCCCCC.F[P-](F)(F)(F)(F)F | 0.772 and 0.814 | 0.671 and 0.639 | 0.535 and 0.541 | 0.506 and 0.516 |  |
| CCC(C)=O [butanone] + CCCCCCCCCCCCCC[P+](CCCCCC)(CCCCCC)CCCCCC.F[P-](F)(F)(F)(F)F | 0.735 and 0.677 | 0.542 and 0.524 | 0.41 and 0.396 | 0.373 and 0.375 |  |
